Results published in ChEMBL document CHEMBL3507680, “University of Dundee, Gates Library screen for HepG2 cell viability”.

assay: Human HepG2 cell viability assay in 384 well format; type: toxicity, cell-based; parameters: dose 125 nL, time 70.5 hour; cytotoxicity at 70.5 h: concentration not given beside the values; details: HepG2 cells, read-out: Inhibition

Row | Structure (SMILES) | cytotoxicity at 70.5 h
1 | COC(=O)c1cccc(S(=O)(=O)NCc2cccnc2N(C)C)c1 | -2.85%
2 | O=C(CN1CCC(c2ccnn2CCO)CC1)NCC1CCCCC1 | -3.43%
3 | COc1c(C)cnc(CN2CCOC(Cn3nc(C)cc3C)C2)c1C (configuration not stated) | -2.15%
4 | CCOc1ccnc(N2CCN(C(=O)c3ccoc3C)CC2)n1 | -3.63%
5 | Nc1cc2c(nn1)CCN(C(=O)CCC1CCCCC1)C2 | -11.1%
6 | Nc1cc2c(nn1)CCN(C(=O)CCCC1CCCCC1)C2 | -13.1%
7 | CC(=O)NCCNC(=O)CN1CCCCC1Cn1cncn1 (configuration not stated) | -8.39%
8 | c1cn(-c2ccc(CN3CCOC(Cn4cncn4)C3)cc2)cn1 (configuration not stated) | -7.67%
9 | Nc1cc2c(nn1)CCN(C(=O)CC1CCCCC1)C2 | -8.85%
10 | COc1c(C)cnc(CN2CCOC(Cn3cc(C)cn3)C2)c1C (configuration not stated) | 0.484%
11 | CCOc1ccnc(N2CCCN(C(=O)c3cc[nH]c3C)CC2)n1 | 17.6%
12 | Cn1cc(C2CCCN2Cc2cscn2)cn1 (configuration not stated) | -2.56%
13 | CS(=O)(=O)NCCN1CCCC1c1ccc(Cl)cc1 (configuration not stated) | 12%
14 | Cc1nn(C)c(N2CCOCC2)c1CNC1COc2ccccc2C1 (configuration not stated) | 27.5%
15 | CN(C)S(=O)(=O)CCCN1CCCC1c1noc(C2CC2)n1 (configuration not stated) | 22.8%
16 | Clc1snnc1CN1CCCC1Cn1cncn1 (configuration not stated) | 53.6%
17 | COc1cc(C(=O)Nc2nc(C)no2)ccc1OC1CCCC1 | -4.68%
18 | Cc1nn(C)c(N2CCOCC2)c1CNC1CCC(O)CC1 (configuration not stated) | -1.76%
19 | Cc1nn(C)c(N2CCOCC2)c1CNC1CCN(C2CC2)CC1 | -6.05%
20 | CC(NC(=O)NCCCc1n[nH]c(N)c1C#N)c1ccc(F)c(F)c1 (configuration not stated) | -2.56%
21 | CCOc1ncccc1NC(=O)NCC(C)O (configuration not stated) | -3.67%
22 | COc1cc(C(=O)Nc2nc(C)no2)cc(OC)c1Br | 27.4%
23 | CCn1cc(NC(=O)NCC(O)COc2ccccc2)cn1 (configuration not stated) | -7.02%
24 | Cc1nn(C)c(N2CCOCC2)c1CNC1CCc2ccccc21 (configuration not stated) | -7.04%
25 | CCCNC(=O)C1CCN(Cc2csc(CC)n2)CC1 | 0.277%
26 | Cc1ccc(C(=O)N(C2CC2)C2CC(=O)NC2=O)cc1F (configuration not stated) | -3.53%

Row | Structure (SMILES) | cytotoxicity at 70.5 h
27 | CCN1CCN(C2CCN(Cc3nc(C4CC4)no3)CC2)C1=O | -5.25%
28 | CCCNC(=O)C1CCN(Cc2csc(C(C)C)n2)CC1 | 16.4%
29 | O=C1CC(N(C(=O)c2ccc(Cl)c(Cl)c2)C2CC2)C(=O)N1 (configuration not stated) | -4.14%
30 | Cc1ccc(-c2nc(CN3CCOC(Cn4cccn4)C3)no2)cc1 (configuration not stated) | -4.16%
31 | CCc1nc(CN(C(C)=O)C2CCN(Cc3csc(C)n3)C2)no1 (configuration not stated) | -2.47%
32 | Cc1cc(C(=O)NS(C)(=O)=O)c(C)n1-c1ccccc1 | -13.1%
33 | O=C(CCN1C(=O)CCC1=O)NCC1(c2c(F)cccc2F)CCCC1 | -11.2%
34 | COc1cccc(-n2c(C)cc(C(=O)NCCCC(N)=O)c2C)c1 | -10.3%
35 | COc1cccc(-n2c(C)cc(C(=O)NC(C)(C)C(N)=O)c2C)c1 | -15.2%
36 | COc1ccc(C2=CCN(C(=O)CN(C)Cc3ccco3)CC2)cc1 | -11.2%
37 | Cc1cc(CN2CCN(CC(O)c3cccc(F)c3)CC2)no1 (configuration not stated) | -4.25%
38 | Cc1cc(CN2CCN(CC(O)c3ccc(Cl)cc3)CC2)no1 (configuration not stated) | -11.9%
39 | Cc1cnn(CC2CN(c3nc4ccccc4o3)CCO2)c1 (configuration not stated) | 16.4%
40 | Cc1cc(NC(=O)c2ccc(-n3ncc(C#N)c3N)cc2)n(C)n1 | -8.66%
41 | Cc1cccnc1NC(=O)c1ccc(-n2ncc(C#N)c2N)cc1 | -4.45%
42 | COc1cccc2cc(CNC(=O)N3CCOC(C)(C)C3)oc12 | 14%
43 | c1ccc(OCCNC2CCCN(Cc3noc(C4CC4)n3)C2)cc1 (configuration not stated) | -7.17%
44 | Cc1nc(C)n(CC2CCCCN2CCOc2ccc(C#N)cc2)n1 (configuration not stated) | -9.43%
45 | Cc1cc(C)n(C2CCCN(C(=O)CCOc3ccccc3F)C2)n1 (configuration not stated) | -9.17%
46 | COc1cccc2cc(CNC(=O)N3CCS(=O)(=O)CC3)oc12 | 12.1%
47 | COc1cccc2cc(CNC(=O)N3CCC(N4CCCC4)C3)oc12 (configuration not stated) | -4.76%
48 | CC(=O)c1cccc(OCC(=O)NS(=O)(=O)c2cccs2)c1 | -6.58%
49 | CCc1n[nH]c(C2CN(C(=O)c3cc4c(s3)CCC4)CCO2)n1 (configuration not stated) | -4.28%
50 | Brc1cccc(-c2nnc(CNCCn3cccn3)o2)c1 | -10.8%
51 | CC(NC(=O)NCCn1ccnc1)c1ccc2c(c1)OCCO2 (configuration not stated) | -14.3%
52 | CCc1cnc(CN(C(C)=O)C2CCN(CCc3cccs3)C2)o1 (configuration not stated) | 8.24%

Row | Structure (SMILES) | cytotoxicity at 70.5 h
53 | CC(C)N1CC(C(=O)NCCOc2ccc3c(c2)OCO3)CC1=O (configuration not stated) | 1.18%
54 | COc1ccc(C2=CCN(C(=O)C3CCCN(C(N)=O)C3)CC2)cc1 (configuration not stated) | -6.51%
55 | O=C(Nc1cccc(CNCc2cccs2)c1)C1CCCC1 | -15%
56 | Cn1ncc2c(=O)[nH]c(CN3CCCC3Cc3ccccc3)nc21 (configuration not stated) | -13.7%
57 | Cn1ncc2c(=O)[nH]c(CN3CCC(Cc4ccccc4)CC3)nc21 | 34.8%
58 | COc1cc(C(=O)N(Cc2cnn(C)c2)C(C)C)ccc1OCC(N)=O | 4.9%
59 | CC(NC(=O)NCC1(c2ccc(F)cc2)CCC1)c1nncn1C (configuration not stated) | -16.8%
60 | CCc1ccc(S(=O)(=O)Nc2c(C)cccc2C(=O)O)s1 | 18.4%
61 | Cc1cn2c(n1)CCC(NC(=O)CCC(F)(F)F)C2 (configuration not stated) | -3.72%
62 | CCCc1n[nH]c(C2CN(C(=O)c3cc(F)ccc3OC)CCO2)n1 (configuration not stated) | -23.2%
63 | Cc1ncc2c(n1)CCN(C(=O)Cc1c(C)noc1C)C2 | 22.9%
64 | COCCN1CCC(NC(=O)C2(c3cc(C)cc(C)c3)CC2)CC1 | -11.3%
65 | CCN1CCOC(CNCc2ccccc2OCC(=O)N(C)C)C1 (configuration not stated) | -4.93%
66 | COc1ccc(C(=O)N(Cc2cnn(C)c2)C(C)C)cc1Br | -9.53%
67 | COc1ccc(C2=CCN(C(=O)C3CC(=O)N(C4CC4)C3)CC2)cc1 (configuration not stated) | -12.9%
68 | O=C(CN1CCCC1Cn1cncn1)NCCOc1cccc(F)c1 (configuration not stated) | -14.6%
69 | CCCc1n[nH]c(C2CN(C(=O)c3ccco3)CCO2)n1 (configuration not stated) | -10.8%
70 | CC(C)OCCC(=O)N(C)CCCc1cc(-c2ccccc2)no1 | 42.3%
71 | Cc1ncsc1C(=O)NCCSCCCO | 9.95%
72 | CC(=O)NCc1ccc(C(=O)N2CCCCC2Cn2cccn2)o1 (configuration not stated) | 8.35%
73 | Cc1csc(CNC(=O)N(C)Cc2cnn(C)c2)n1 | -15.5%
74 | Cc1cc(C2CCCN2CC(=O)N(CCC#N)c2ccccc2F)on1 (configuration not stated) | -12.2%
75 | CN(CC(=O)N1CCC(Oc2ccccc2)CC1)c1cnccn1 | -13.9%
76 | Cn1ccnc1CN1CCN(c2ccc(C#N)cn2)CC1 | -13.3%
77 | Cn1ccnc1CN1CCN(c2ccc(C#N)cc2F)CC1 | -7.5%
78 | Clc1cc(CN2CCCC2Cn2cncn2)c2ncccc2c1 (configuration not stated) | -20.8%

Row | Structure (SMILES) | cytotoxicity at 70.5 h
79 | Clc1ccc2cccnc2c1CN1CCCC(Cn2cncn2)C1 (configuration not stated) | -14.3%
80 | CCCOc1cccc(CNC(=O)CN2CCN(C)CC2C)c1 (configuration not stated) | -13.5%
81 | CC(C)c1nc(C2CCCN2C(=O)c2cnc[nH]2)no1 (configuration not stated) | 21.4%
82 | CNc1nc(CNC(=O)Nc2cccc(-c3nnco3)c2)cs1 | -18.7%
83 | CCOc1ccc(NC(=O)NCc2csc(NC)n2)cc1C | -5.86%
84 | CN(CCC#N)C(=O)CN1CCCC1c1ccsc1 (configuration not stated) | 22.4%
85 | N#CCCN(C(=O)CN1CCCC1c1ccsc1)c1ccccc1F (configuration not stated) | -14%
86 | Cc1ccc(CC(=O)N2CCCC(c3cc(C)[nH]n3)C2)cn1 (configuration not stated) | -7.57%
87 | OCCn1cc(CN2CCN(CCOc3ccccc3F)CC2)cn1 | 16.6%
88 | O=C(CN1CCOC(Cn2cccn2)C1)NCCc1ccc(F)cc1 (configuration not stated) | -13.9%
89 | CCc1nc(CN2CCCN(C(=O)c3cnc[nH]3)CC2)cs1 | -14.3%
90 | Cc1ccc(CC(=O)N2CCCC(c3nc(C)cs3)C2)cn1 (configuration not stated) | -17.4%
91 | CCN(CC)Cc1ccc(C(=O)N2CCCCC2Cn2cccn2)o1 (configuration not stated) | -13.1%
92 | CC(=O)N(Cc1ncc(C(C)C)o1)C1CCN(Cc2nccn2C)C1 (configuration not stated) | -0.826%
93 | CC(=O)N(Cc1ncc(C(C)C)o1)C1CCN(CCn2cccn2)C1 (configuration not stated) | 4.58%
94 | CC(C)(C)c1nnc(CN2CCCC2c2noc(C3CC3)n2)o1 (configuration not stated) | -8.8%
95 | Cc1ncc2c(n1)CN(Cc1nnc(Cc3ccccc3)o1)CC2 | -3.37%
96 | c1cnn(CC2CCCN2c2ncnc3ccsc23)c1 (configuration not stated) | 10.7%
97 | Cc1ccc(CNC(c2ccccc2)c2nccn2C)cc1C (configuration not stated) | -7.63%
98 | COc1ccc(-n2ccc(C(=O)N3CCC(C(N)=O)C3)n2)cc1 (configuration not stated) | 23.5%
99 | COc1c(CNCCNC(=O)c2ccco2)c(C)nn1C | -10.7%
100 | CNC(=O)C1CCN(C(=O)CCn2cccn2)CC1 | 26.7%
101 | Cc1ccc2c(c1)CCC2NCc1c(C)nn(C)c1N1CCOCC1 (configuration not stated) | -1.48%
102 | O=C(Nc1cccc(CNCc2csc(Br)c2)c1)C1CC1 | 4.95%
